Legend:
[1] = octanol/water
Description: Lipophilicity, log P of the compound

MDA-MB-231 = test: cells; conditions: Homo sapiens, MDA-MB-231, 48 h
Description: Cytotoxicity against Homo sapiens (human) MDA-MB-231 cells after 48 hr by MTT assay

HepG2 = test: cells; conditions: Homo sapiens, HepG2, 48 h
Description: Cytotoxicity against Homo sapiens (human) HepG2 cells after 48 hr by MTT assay

K562 = test: cells; conditions: Homo sapiens, K562, 48 h
Description: Cytotoxicity against Homo sapiens (human) K562 cells after 48 hr by MTT assay

physchem = conditions: octanol/water
Description: Lipophilicity, log P of the compound

SMILES | logP [1] | IC50 (MDA-MB-231) [µM] | IC50 (HepG2) [µM] | IC50 (K562) [µM] | logP (physchem)
Cc1ccc(OP2(=O)NCC(C)(C)CN2)cc1 | 0.12 | 0.23 | 2.2 | 1.44 | –
O=P1(Nc2ccccc2)NCCCO1 (stereo not drawn) | – | 0.83 | 0.6 | 0.55 | 0.29
NS(=O)(=O)c1ccc(NP2(=O)NCCCO2)cc1 (stereo not drawn) | – | 0.17 | 0.14 | 0.15 | 1.88
COc1ccc(NP2(=O)NCCCO2)cc1 (stereo not drawn) | – | 0.23 | 0.06 | 0.2 | -0.71
O=[N+]([O-])c1ccc(NP2(=O)NCCCO2)cc1 (stereo not drawn) | – | 0.09 | 0.15 | 0.89 | -0.53
Cc1ccc(OP2(=O)NCCCO2)cc1 (stereo not drawn) | – | 0.87 | 0.59 | 0.71 | 0.76
NS(=O)(=O)c1ccc(NP2(=O)NCCCN2)cc1 | – | 0.11 | 0.13 | 0.19 | 1.56
CC1(C)CNP(=O)(Nc2ccccc2)NC1 | – | 2.04 | 3.17 | 3.11 | -0.03
O=P1(N(CCCl)CCCl)NCCCO1 (stereo not drawn) [CYCLOPHOSPHAMIDE ANHYDROUS] | – | 0.09 | 0.24 | 0.15 | –
Nc1ccc(S(N)(=O)=O)cc1 [SULFANILAMIDE] | – | 0.09 | 0.08 | 0.2 | –

Source: ChEMBL document CHEMBL3045968, “Antitumor activities of some new 1,3,2-oxaza- and 1,3,2-diazaphosphorinanes against K562, MDA-MB-231, and HepG2 cells” (Med Chem Res, 2012)
